Reference: patent EP0701444B1, “METHODS AND COMPOSITIONS FOR INDUCING SLEEP” (Purdue Pharma Ltd., priority 1993, dated 1994)
“Also recorded” adds a separate entry of the source.

Experiments:
Solubility in water = format: physicochemical; conditions: read-out: soluble in water
rats = assay: Rat sleep-wake bioassay (EEG, EMG, locomotor activity, body temperature); format: in vivo, Wistar rats; conditions: for reduction in locomotor activity (LMA) over time: compared to Triazolam and Zolpidem
Procedure: Rat preparation, monitoring, and analysis of the data was conducted as described below. […] Body temperature and locomotor activity were monitored via a miniature transmitter (Minimitter) surgically placed in the abdomen. The cranial implant consisted of stainless steel screws (2 frontal [+3.9 AP form bregma, ±2.0 ML] and two occipital [-6.4 AP, ±5.5 ML]) for EEG recording. Two Teflon-coated steel wires were positioned under the nuchal trapezoid muscles for EMG recording. All leads were soldered to a miniature connector prior to surgery, and chemically sterilized in Glutarex (3M Co.). The implant assembly was affixed to the skull with dental acrylic. A minimum of three weeks was allowed for recovery.
Each rat was permanently housed in its own individual recording cage located within separate, ventilated compartments of custom-designed stainless steel cabinets. Each Nalgene microisolator cage, which is an individual recording cage, was enhanced with a filter-top riser and swivel-commutator. Food and water were available ad libitum. […] Animals were undisturbed for three days both before and after treatments. In practice, animals were undisturbed during the weekend. Treatments were administered on Monday evening or Tuesday morning, and the animals were again left undisturbed until Friday, when cages were cleaned and the data copied off the computers.
The computers monitored the EEG, EMG, body temperature and non-specific locomotor activity (LMA) via telemetry, and drinking activity from 48 rats simultaneously. The computer classified the arousal state every 10 seconds using pattern-matching algorithms which included behavior-dependent contextual rules. Drinking and LMA were recorded every 10 seconds, while body temperature was recorded every minute.
Therefore, time of treatment is important. By administering the drug at CT-18, which is the peak of the rat's activity dominated period, the natural tendency for the rats to sleep at lights on ([…] clock time or Circadian Time, CT-0) cannot mask the hypnotic activity of the drug. By administering the drug at CT-5 when the propensity for REM sleep is greatest, the drug's effect on REM sleep can be measured more accurately. The activity dominated period begins when the lights are turned off at CT-12 or 15:00 clock time on the Figures.
The drugs and controls were injected intraperitoneally or administered orally in a volume of 1 ml/kg or […], respectively, under dim red illumination for the CT-18 studies or under regular light for the CT-5 studies.
A matched control group, N=20, was selected from a pool of 60 available control candidates. These matched control groups were constructed as follows.

[1] = molecular target: steroid site on the GABAA receptor-chloride channel complex; assay: [35S]TBPS binding assay; design: species or system Male Sprague-Dawley rats; conditions: inhibition of [35S]TBPS (2 nM) binding, rat cerebral cortex P2 membranes, 5 µM GABA, 90 minute incubation at 22°C
Procedure: TBPS binding assays were conducted according to the following procedures, which are described in Gee, K.W.; Lawrence, L.J.; and Yamamura, H. I., "Modulation of the Chloride Ionophore by Benzodiazepine Receptor Ligands Influence of Gamma-Aminobutyric Acid and Ligand Efficacy," Molecular Pharmacology, 30:218, 1986. Male Sprague-Dawley rats (200-250g) were anesthetized with carbon dioxide and decapitated. The rats' brains were removed and the cerebral cortices were dissected and homogenized in 10 volumes of 0.32 M sucrose. Tissue was centrifuged at 1000 x g for 10 minutes and the resultant supernatant was centrifuged at 9,000 g for 20 minutes. The resultant pellet was resuspended in 10 volumes of 200 mM NaCl/50 mM Na-K phosphate pH 7.4 buffer (binding buffer) and then centrifuged at 9,000 x g for 10 minutes. This washing procedure was repeated twice and the final P2 pellet was resuspended in the binding buffer. For the binding assay, [^35S] TBPS (2 nM) was co-incubated in binding buffer with P2 membranes and 5 µM GABA and either 1) no additions to measure total binding; 2) 2 µM unlabeled TPBS to measure nonspecific binding; 3) the neurosteroid ranging in concentration from 1 Nm to 10µM. Following a 90 minute incubation at 22°C, the suspension was filtered and the bound radioactivity was determined by liquid scintillation counting. […] A lower IC50 indicates higher affinity for the steroid site on the GABAA receptor-chloride channel complex. Table 1 gives the IC50 values of representative steroids used in the present invention.

C#C[C@@]1(O)CC[C@@]2(C)[C@H](CC[C@@H]3[C@@H]2CC[C@]2(C)[C@@H](C(=O)COC(=O)CCC(=O)O)CC[C@@H]32)C1 [Sodium 3α,21-dihydroxy-3β-ethynyl-5β-pregnan-20-one 21-hemisuccinate]
solubility (Solubility in water): > 20 mg/mL

CC(=O)[C@H]1CC[C@H]2[C@@H]3CC[C@@H]4C[C@H](O)CC[C@]4(C)[C@H]3CC[C@]12C [3α-hydroxy-5β-pregnan-20-one]
body temperature (rats): tends not to affect body temperature | duration of uninterrupted NREM sleep (sleep bout length) (rats): strong increase | rebound insomnia / rebound wakefulness / rebound effects (rats): not producing rebound wakefulness | reduction in locomotor activity (LMA) over time (rats; 10 mg/kg): no reduction | reduction in locomotor activity (LMA) over time (rats; 30 mg/kg): moderately smaller reduction | rebound reduction of NREM sleep (rats; CT-5 or CT-18, any dose): no rebound reduction of NREM sleep | NREM sleep (rats; administered at CT-5 or CT-18, listed as Pregnanolone): potent at both CT-5 and CT-18; also recorded: potent NREM-promoting effect | NREM sleep (rats; administered at CT-5 or CT-18, listed as pregnanolone): effective in promoting NREM sleep | REM sleep (rats; listed as Pregnanolone): slight REM-interference | REM sleep (rats; listed as pregnanolone): lack an inhibitory effect on REM sleep | IC50 [1]: 25 nM
